The source of these data is ChEMBL document CHEMBL3585319 (J Med Chem, 2015).

A word on the inhibition: it is the change of the read-out against control, counted positive when it falls. As a reminder, the Ki is the dissociation constant of the complex between target and ligand, obtained from inhibition or displacement. A higher Ki goes with weaker binding.

Experiment [1] has as its target T1, Sodium-dependent serotonin transporter (Homo sapiens, UniProt P31645). Put plainly: Irreversible photoaffinity labeling of hemagglutinin-tagged human SERT expressed in LLCPK1 cells assessed as 10 uM (s)-citalopram-induced blocking of compound binding at 10 nM incubated for 1.5 hrs at 4 degC followed by irradiation with shortwave ultraviolet light for 5 mins by SDS-PAGE and autoradiography method. It is filed as cell-based. To be noted: LLC-PK1, tested as the 125I-labelled form.
Target sequence in this assay (P31645 whole entry, looked up): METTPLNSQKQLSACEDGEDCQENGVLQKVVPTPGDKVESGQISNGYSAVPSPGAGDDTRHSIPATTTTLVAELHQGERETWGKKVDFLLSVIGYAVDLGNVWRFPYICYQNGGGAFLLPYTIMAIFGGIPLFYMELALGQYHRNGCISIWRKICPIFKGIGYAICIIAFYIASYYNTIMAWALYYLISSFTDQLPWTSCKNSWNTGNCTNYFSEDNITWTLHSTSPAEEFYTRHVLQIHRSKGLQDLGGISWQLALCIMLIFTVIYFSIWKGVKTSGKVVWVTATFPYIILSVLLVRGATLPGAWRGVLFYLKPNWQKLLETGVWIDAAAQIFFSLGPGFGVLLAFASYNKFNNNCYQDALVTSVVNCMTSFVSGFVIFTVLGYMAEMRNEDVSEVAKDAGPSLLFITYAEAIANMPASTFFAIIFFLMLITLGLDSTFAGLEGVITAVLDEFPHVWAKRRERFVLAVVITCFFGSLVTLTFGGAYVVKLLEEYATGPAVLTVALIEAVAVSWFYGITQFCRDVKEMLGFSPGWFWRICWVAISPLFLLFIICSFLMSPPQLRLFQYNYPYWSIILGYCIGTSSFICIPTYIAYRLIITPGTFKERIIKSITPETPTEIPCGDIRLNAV

Experiment [2] deals with T1, Sodium-dependent serotonin transporter. The experiment is described as follows: Irreversible photoaffinity labeling of hemagglutinin-tagged human SERT expressed in LLCPK1 cells at 10 nM incubated for 1.5 hrs at 4 degC followed by irradiation with shortwave ultraviolet light for 5 mins by SDS-PAGE and autoradiography method. It counts as cell-based. To be noted: LLC-PK1, tested as the 125I-labelled form.
Target sequence in this assay (P31645 whole entry, looked up): as above

The target is the same in experiment [3]. Put plainly: Inhibition of wild type human SERT expressed in HEK293 GripTite cells pre-incubated for 5 mins followed by [3H]5-HT addition by [3H]5-HT uptake assay. It counts as cell-based.
Target sequence in this assay (P31645 whole entry): as the sequence (P31645 whole entry, looked up) above
Experiment [4] has as its target Sodium-dependent serotonin transporter (Homo sapiens, UniProt P31645, S438T). It counts as cell-based, HEK293.
Another experiment is filed under the species Homo sapiens. Put plainly: Resistance index, ratio of Ki for human SERT S438T mutant expressed in HEK293 GripTite cells to Ki for wild type human SERT expressed in HEK293 GripTite cells. It counts as cell-based.

Calls of active or inactive are those of the source. The calls are words filed in the database; no cut-off is given here.

Sequence of Sodium-dependent serotonin transporter (Homo sapiens, UniProt P31645, S438T) (P31645 whole entry S438T): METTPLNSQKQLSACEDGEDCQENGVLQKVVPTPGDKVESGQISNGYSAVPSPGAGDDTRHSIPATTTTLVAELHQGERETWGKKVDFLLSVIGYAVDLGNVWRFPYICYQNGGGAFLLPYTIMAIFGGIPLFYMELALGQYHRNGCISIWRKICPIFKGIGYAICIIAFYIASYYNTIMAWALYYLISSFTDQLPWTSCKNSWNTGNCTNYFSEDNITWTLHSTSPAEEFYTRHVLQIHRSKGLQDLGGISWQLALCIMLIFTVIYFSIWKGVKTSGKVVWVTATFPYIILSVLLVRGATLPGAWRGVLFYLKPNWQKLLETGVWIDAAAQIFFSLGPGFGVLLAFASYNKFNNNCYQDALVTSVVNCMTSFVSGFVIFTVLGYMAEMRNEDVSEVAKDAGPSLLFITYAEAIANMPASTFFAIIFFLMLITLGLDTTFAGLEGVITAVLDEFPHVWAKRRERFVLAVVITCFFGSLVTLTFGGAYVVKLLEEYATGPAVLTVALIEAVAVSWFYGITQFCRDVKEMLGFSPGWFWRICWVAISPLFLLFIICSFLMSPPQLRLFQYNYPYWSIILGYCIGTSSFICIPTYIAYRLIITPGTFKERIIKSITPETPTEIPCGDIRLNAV

Consider `CN(CCC[C@@]1(c2ccc(F)cc2)OCc2cc(C#N)ccc21)CCc1ccc(N=[N+]=[N-])c(I)c1`, for which the inhibition in experiment [1] was 30%. Further, the result in experiment [2] was Active. Besides, the Ki in experiment [3] came out at 227 nM; in experiment [4] it was 3810 nM. In addition, the Ratio Ki in the experiment listed under Homo sapiens amounted to 17.
With `CN(C)CCC[C@@]1(c2ccc(F)cc2)OCc2cc(CNC(=O)CCc3ccc(N=[N+]=[N-])c(I)c3)ccc21`, the inhibition in experiment [1] is greater than 99%. Moreover, the result in experiment [2] was Active. Also, the Ki amounted to 38 nM in experiment [3] and 9880 nM in experiment [4].
Take `CN(C)CCC[C@@]1(c2ccc(F)cc2)OCc2cc(CNC(=O)c3ccc(N=[N+]=[N-])c(I)c3)ccc21`: in experiment [1], the inhibition was greater than 99%. Further, the result in experiment [2] was Active. Besides, the inhibition constant (Ki) in experiment [3] worked out at 24 nM; in experiment [4] it was 5700 nM.
On to `COC(=O)[C@@H]1C2CCC(C[C@@H]1c1ccc(Cl)cc1)N2CCCCc1ccc(N=[N+]=[N-])c(I)c1` (some centres undefined), for which the result in experiment [2] was Active.
